The values that follow come from patent US8158442B2, “Antagonists of bitter taste receptors and uses thereof” (Deutsches Institut Fuer Ernaehrungsforschung …, priority 2007, dated 2012).

In one experiment the target is T1, hTAS2R16 (Homo sapiens, UniProt Q9NYV7).
T1 construct: expressed in transfected cells
T1 sequence (Q9NYV7 1-291): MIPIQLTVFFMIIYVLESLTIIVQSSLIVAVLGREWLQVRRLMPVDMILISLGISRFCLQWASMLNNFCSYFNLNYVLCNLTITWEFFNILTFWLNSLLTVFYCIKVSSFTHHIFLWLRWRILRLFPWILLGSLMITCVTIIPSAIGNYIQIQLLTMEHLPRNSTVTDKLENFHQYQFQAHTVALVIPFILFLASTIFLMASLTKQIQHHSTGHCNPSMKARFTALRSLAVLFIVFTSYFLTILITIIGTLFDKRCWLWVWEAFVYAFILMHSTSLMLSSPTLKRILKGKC
In words: Calcium imaging of hTAS2R16 transfected cells stimulated with salicin, specificity test. Format: cell-based. The settings on record: 10 mM DMTU, 5 mM DETU or 0.1 mM MBI, FIG. 4. The text has this: (§1) Human TAS2R38 cDNAs encoding the PAV form of the receptor was fused with a plasma membrane-targeting sequence of the rat somatostatin type 3 receptor at the N terminus of the recombinant polypeptide and a herpes simplex virus glycoprotein D (HSV) epitope at its C terminus (Bufe B., et al. (2002) Nat Genet 32:397-401). The constructs were transiently transfected into human embryonic kidney (HEK)-293T cells that stably express the chimeric G-protein subunit G16gust44 (Ueda T., et al. (2003) J Neurosci 23:7376-7380) using Lipofectamine 2000 (Invitrogen). They were then seeded at a density of ˜20-30% and transfected at ˜60% confluency in 96-well microtiter plate (Greiner) coated with 10 μg/ml Poly-D-lysine (Sigma-Aldrich). Calcium imaging experiments using an automated fluorometric imaging plate reader (FLIPR) (Molecular Devices) have been performed 24-32 h later essentially as described previously (Bufe B., et al. (2005) Curr. Biol. 15, 322-327). Tastants (Sigma-Aldrich) were dissolved and administered in the following solution: 130 mM NaCl, 5 mM KCl, 10 mM HEPES, 2 mM CaCl2, and 10 mM glucose, pH 7.4. Data were averaged over several independent experiments and processed with SigmaPlot (SPSS). For calculation of dose-response curves, the peak fluorescence responses after addition of compounds were corrected for and normalized to background fluorescence (ΔF/F=(F−F0)/F0), and baseline noise was subtracted.
(§2) In contrast to the observed effects on TAS2R38, the response of cells expressing hTAS2R16 or mTas2r5 to their cognate ligands salicin or cycloheximide was not altered by any of the three TAS2R38 antagonists in concentrations that inhibited response of TAS2R38 (FIG. 4).

In experiment [1] the target is T2, TAS2R38 (Homo sapiens, UniProt P59533, A49P/I296V).
T2 construct: expressed in transfected cells; host or cells: HEK-293T cells stably expressing the chimeric G-protein subunit G16gust44
T2 sequence (P59533 1-333 A49P/I296V): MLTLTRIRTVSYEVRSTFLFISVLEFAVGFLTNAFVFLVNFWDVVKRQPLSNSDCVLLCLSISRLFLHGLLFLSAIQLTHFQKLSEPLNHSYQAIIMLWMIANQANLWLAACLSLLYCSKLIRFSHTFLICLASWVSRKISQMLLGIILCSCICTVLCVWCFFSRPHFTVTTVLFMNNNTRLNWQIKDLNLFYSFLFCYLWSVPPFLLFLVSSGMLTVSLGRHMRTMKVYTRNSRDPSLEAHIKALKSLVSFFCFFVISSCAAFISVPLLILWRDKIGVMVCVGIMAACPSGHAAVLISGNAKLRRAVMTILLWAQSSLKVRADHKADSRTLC
Description: Calcium imaging (FLIPR) of TAS2R38 transfected cells, antagonists applied as mixture with TAS2R38 agonists. Format: cell-based. The settings on record: for inhibition of the responses of TAS2R38 agonists: mixture with 0.03 mM PROP, 0.03 mM PTC or 1 mM MET, 20 mM DMTU, 5 mM DETU or 0.1 mM MBI, FIG. 3.
Description: as §1
To test whether dimethylthiourea, diethylthiourea and mercaptobenzimidazole are capable of inhibiting the response of other TAS2R38 agonists we next tested them as mixtures with the structurally divergent TAS2R38 agonists propylthiouracil, phenylthiourea and methimidazole.
To further investigate the mechanism of the inhibition of TAS2R38 we examined the effect of increasing diethylthiourea concentrations on the dose response curves of propylthiouracil and phenylthiourea (FIG. 5). […] Thus, the likeliest explanation for the observed right shift in the EC50 values caused by negative cooperativity of the inhibitor binding site on the agonist binding site of PROP and PTC.

In a further experiment the target is T3, mTas2r5 (Mus musculus, UniProt Q9JKT4).
T3 construct: expressed in transfected cells
T3 sequence (Q9JKT4 1-300): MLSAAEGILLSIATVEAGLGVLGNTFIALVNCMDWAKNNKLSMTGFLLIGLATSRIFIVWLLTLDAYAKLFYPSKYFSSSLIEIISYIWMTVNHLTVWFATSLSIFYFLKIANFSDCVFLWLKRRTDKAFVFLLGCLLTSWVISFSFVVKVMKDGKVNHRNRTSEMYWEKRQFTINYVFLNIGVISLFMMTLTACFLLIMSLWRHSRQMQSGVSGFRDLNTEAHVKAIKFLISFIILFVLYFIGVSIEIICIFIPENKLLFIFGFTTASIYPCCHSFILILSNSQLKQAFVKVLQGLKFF
Description: Calcium imaging of mTas2r5 transfected cells stimulated with cycloheximide, specificity test. Format: cell-based, murine. The settings on record: 10 mM DMTU, 5 mM DETU or 0.1 mM MBI, FIG. 4.
Description: as §1, §2

The target of experiment [2] is T2, TAS2R38. In words: Calcium imaging (FLIPR) of TAS2R38-PAV transfected HEK-293T G16gust44 cells, activation by compound alone. Format: cell-based.
Description: as §1
During the structure-function-analysis of TAS2R38 agonists we identified and tested various compounds that contain an N—C═S moiety, which is a hallmark of TAS2R38 agonists. […] Two other compounds, dimethylthiourea and mercaptobenzimidazole that also have an N—C═S moiety (FIG. 1) could activate the receptor only at low to concentrations (EC50 of 0.5 mM for dimethylthiourea and 1.0 μM for mercaptobenzimidazole). Application of dimethylthiourea in concentrations above 3 mM led to a dose dependant reduction of the signal amplitude (FIG. 2).

[3] abbreviates: TAS2R38-PAV transfected cells, compound alone, FIG. 2, read-out: EC50 (activation of the receptor).

By EC50 is commonly meant the concentration needed to bring the measured effect to its halfway point. Regarding `CNC(=S)NC` [dimethylthiourea, N,N′-dimethylthiourea], the “effect on response of hTAS2R16 expressing cells to salicin” value (“effect on response … to salicin” below) on hTAS2R16 is “not altered”. The “inhibition of the responses of TAS2R38 agonists” value (“inhibition” for short) on TAS2R38 [1] was “inhibited the responses of all tested agonist”. Moreover, at mTas2r5, the “effect on response of mTas2r5 expressing cells to cycloheximide” value (“effect on response … to cycloheximide” for short) is “not altered”. For the same compound, the “concentrations at which the compound acts as agonist of hTAS2R38” value at TAS2R38 [2] was “below 3 mM”. For the same compound, the EC50 on TAS2R38 [2] (setting [3]) was determined as 500 µM. The “concentrations leading to a dose dependant reduction of the signal amplitude” value on TAS2R38 [2] (TAS2R38 expressing cells, compound alone, FIG. 2) is recorded as “above 3 mM”.
As to `Sc1nc2ccccc2[nH]1` [mercaptobenzimidazole, 2-mercaptobenzimidazole], the “effect on response … to salicin” value on hTAS2R16 is listed as “not altered”. Further, the “inhibition” value on TAS2R38 [1] is “inhibited the responses of all tested agonist”. Further, the “effect on response … to cycloheximide” value at mTas2r5 is “not altered”. Besides, at TAS2R38 [2], the “concentrations at which the compound acts as agonist of hTAS2R38” value was “below 0.01 mM”. The EC50 on TAS2R38 [2] (setting [3]) was 1 µM. The “concentrations that pronouncedly reduced the response of TAS2R38 receptor expressing cells” value at TAS2R38 [2] (compound alone, FIG. 2) is “above 10 μM”.
In the case of `CCNC(=S)NCC` [diethylthiourea, N,N′-diethylthiourea], the “effect on response … to salicin” value at hTAS2R16 was “not altered”. Also, on TAS2R38 [1] (increasing diethylthiourea concentrations, not abolished by increasing agonist concentrations), the “effect on signal amplitudes of the agonists” value is “pronounced reduction of the signal amplitudes”. Also, the “inhibition” value at TAS2R38 [1] is reported as “inhibited the responses of all tested agonist”. For the same compound, the “effect on response … to cycloheximide” value at mTas2r5 is reported as “not altered”. At TAS2R38 [2] (TAS2R38-PAV transfected cells, compound alone, FIG. 2), the “activation of the receptor” value is on record as “did not activate the receptor at any tested concentration”.
Take `NC(=S)Nc1ccccc1` [phenylthiourea, phenylthiocarbamide, reference compound]: the EC50 came out at 3.4 ± 2.5 µM on TAS2R38 [1] (EC50 (result obtained for propylthiouracil), +0.25 mM diethylthiourea); 6.3 ± 3.9 µM at TAS2R38 [1] (EC50 (result obtained for propylthiouracil), +0.5 mM diethylthiourea); 2.8 ± 0.8 µM at TAS2R38 [1] (EC50 of phenylthiourea, +0.25 mM diethylthiourea); 4.8 ± 1.8 µM at TAS2R38 [1] (EC50 of phenylthiourea, +0.5 mM diethylthiourea); 1.1 ± 0.8 µM at TAS2R38 [2] (EC50 (result obtained for propylthiouracil), alone, TAS2R38 transfected cells, FIG. 5); 1.4 ± 0.9 µM on TAS2R38 [2] (EC50 of phenylthiourea, alone, TAS2R38 transfected cells, FIG. 5).
